Experimental data taken from patent US8614179B2, “Antibacterial combination therapy for the treatment of gram positive bacterial infections” (E-Therapeutics PLC, priority 2008, dated 2013).
Values after ≈ are worked out from the molar mass of the structure shown. Like-named read-outs stand apart in the source and are kept apart here.

Legend:
MRSA = test: microbe, parasite or virus in culture; type: cell-based; conditions: Staphylococcus aureus
Description: (§1) In example experiments miconazole nitrate, econazole nitrate and clotrimazole were dissolved in DMSO. Colistin, D-cycloserine, fosfomycin and polymixin B were dissolved in water. Nisin was suspended at 10 mg/mL in 0.02 M HCl, and the supernatant fraction following centrifugation at 10,000 g for 10 mins was used in the following experiments.
(§2) Other solvents that may be used include caster oil, pyridine, and 0.9% saline. For IV administration agents may be solubilised in polyethoxylated caster oil, or cyclodextrins such as sulfobutylether7-βcyclodextrin or hydroxypropyl-β-cyclodextrin and lactic acid. Minimum inhibitory concentrations (MICs) of a range of clinical and control bacterial organisms were measured according to BSAC (British Society for Antimicrobial Chemotherapy) guidelines (Andrews 2001), for single agents. The method of determining MICs of imidazole with colistin, D-cycloserine, fosfomycin, polymixin B, or nisin is described briefly as follows. MICs were measured by agar dilution. Kill curves were performed in accordance with the methods of Garrison and Nuemiller, 2007. Briefly kill profiles were generated by logarithmically plotting mean CFU/mL data over time. Total logarithmic reductions in bacterial counts were determined by subtracting 24 h CFU/mL values from starting inocula.
(§3) Stock solutions were prepared at concentrations of 1000 mg/L and 100 mg/L. To determine the MIC of miconazole, the appropriate amount of each stock solution were added to separate Petri dishes give a range of final concentrations (after the addition of 20 mL molten agar): from 0.12 to 32 mg/L. To determine the MICs of miconazole with the specific agent active on a bacterial cell surface, these concentrations of miconazole were used in addition to a fixed sub-inhibitory amount of the agent active on a bacterial cell surface. […] Volumes (20 mL) of cooled molten IST agar (oxoid) was added to each Petri dish and mixed by swirling. After drying, the plates were stored at 4° C. and protected from light. Plates were used on the day of preparation.
(§4) The test organisms were grown overnight in 5 mL IST broth. Using a dilution in 0.9% saline of 1:100, the appropriate agar plates were inoculated using a multipoint inoculator.
(§5) Agar plates and microtitre plates were incubated at 37° C. in air for 18-20 hours.
(§6) The MIC is the minimum amount of an antibiotic at which there is no visible growth of bacteria. Tiny single colonies or faint hazes were not counted as growth. Synergy was reported if the inhibitory effect of the drugs in combination were greater than the sum of the inhibitory effects of each drug singly. The concentration of miconazole, with or without the cell membrane or cell wall active agent, capable of inhibiting the growth of 50% and 90% of the strains tested is reported as the MIC50 and MIC90 respectively. The range of MICs for each group of bacterial strains is also reported.

VISA = test: microbe, parasite or virus in culture; type: cell-based; conditions: Staphylococcus aureus, read-out: MIC
Description: as §1, §2, §3, §4, §5, §6

Clostridium difficile = test: MIC against clinical isolates of Clostridium difficile; type: cell-based; conditions: Table 5, miconazole alone or with 0.5 mg/L nisin
Description: as §1, §2, §3, §4, §5, §6

MRSA AND VRE = test: MIC by agar dilution, MIC50/MIC90/range over MRSA and VRE strain panel; type: cell-based, Staphylococcus aureus; Enterococci
Description: In example experiments miconazole nitrate, econazole nitrate and clotrimazole were dissolved in DMSO. Colistin, D-cycloserine, fosfomycin and polymixin B were dissolved in water.
as §2, with “The method of determining MICs of imidazole with colistin, D-cycloserine, fosfomycin, polymixin B, or nisin is described briefly as follows.” left out
as §3
The test organisms were grown overnight in 5 mL IST broth. Using a dilution in 0.9% saline of 1:100, the appropriate agar plates were inoculated using a multipoint inoculator. […]
as §6, with “Synergy was reported if the inhibitory effect of the drugs in combination were greater than the sum of the inhibitory effects of each drug singly.” left out

[1] = Table 1a, MRSA n = 27, VRE n = 5, miconazole MIC alone or with D-cycloserine fixed at 10 mg/L
[2] = Table 1b, MRSA n = 27, VRE n = 5, miconazole MIC alone or with fosfomycin fixed at 5 mg/L
[3] = Table 1c, MRSA n = 21, VRE n = 3, miconazole MIC alone or with colistin fixed at 5 mg/L
[4] = Table 1e, MRSA n = 21, VRE n = 4, miconazole MIC alone or with nisin fixed at 2.5 mg/L
[5] = Table 3, MRSA n = 27, VRE n = 5, miconazole alone, 1:1 bacitracin to miconazole, or with bacitracin fixed at 2.5 mg/L

Clc1ccc(COC(Cn2ccnc2)c2ccc(Cl)cc2Cl)c(Cl)c1 (stereo not shown) [Miconazole, 1-[2-(2,4-Dichlorophenyl)-2-[(2,4-dichlorophenyl)methoxy]ethyl]-1H-imidazole]
MIC (MRSA; Table 4, strain LF10, agents singly or miconazole MIC with 2.5 mg/L nisin): 2 µg/mL | MIC (MRSA; Table 4, strain LF11, agents singly or miconazole MIC with 2.5 mg/L nisin): 2 µg/mL | MIC (MRSA; Table 4, strain LF12, agents singly or miconazole MIC with 2.5 mg/L nisin): 2 µg/mL | MIC (MRSA; Table 4, strain LF13, agents singly or miconazole MIC with 2.5 mg/L nisin): 2 µg/mL | MIC (MRSA; Table 4, strain LF14, agents singly or miconazole MIC with 2.5 mg/L nisin): 2 µg/mL | MIC (MRSA; Table 4, strain LF15, agents singly or miconazole MIC with 2.5 mg/L nisin): 2 µg/mL | MIC (MRSA; Table 4, strain LF16, agents singly or miconazole MIC with 2.5 mg/L nisin): 2 µg/mL | MIC (MRSA; Table 4, strain LF17, agents singly or miconazole MIC with 2.5 mg/L nisin): 2 µg/mL | MIC (MRSA; Table 4, strain LF18, agents singly or miconazole MIC with 2.5 mg/L nisin): 1 µg/mL | MIC (MRSA; Table 4, strain LF19, agents singly or miconazole MIC with 2.5 mg/L nisin): 2 µg/mL | MIC (MRSA; Table 4, strain PF 15a 009521M ST22 EMRSA, agents singly or miconazole MIC with 2.5 mg/L nisin): 1 µg/mL | MIC (MRSA; Table 4, strain PF 16a 00923R EMRSA 16, agents singly or miconazole MIC with 2.5 mg/L nisin): 2 µg/mL | MIC (MRSA; Table 4, strain PF 99b 983237K BERIAN CLONE, agents singly or miconazole MIC with 2.5 mg/L nisin): 2 µg/mL | MIC (MRSA; Table 4, strain PF 116a 981695K, agents singly or miconazole MIC with 2.5 mg/L nisin): 2 µg/mL | MIC (MRSA; Table 4, strain PF 153a 026225E, agents singly or miconazole MIC with 2.5 mg/L nisin): 0.5 µg/mL | MIC (MRSA; Table 4, strain S113 MRSA, agents singly or miconazole MIC with 2.5 mg/L nisin): 2 µg/mL | MIC (VISA; Table 4, strain Mu3ex Japan, agents singly or miconazole MIC with 2.5 mg/L nisin): 2 µg/mL | MIC (VISA; Table 4, strain Mu50ex Japan, agents singly or miconazole MIC with 2.5 mg/L nisin): 1 µg/mL | MIC (VISA; Table 4, strain USA/VISA 5827, agents singly or miconazole MIC with 2.5 mg/L nisin): 2 µg/mL | MIC (VISA; Table 4, strain USA/VISA 5836, agents singly or miconazole MIC with 2.5 mg/L nisin): 4 µg/mL | MIC (VISA; Table 4, strain VISA 3900 UK, agents singly or miconazole MIC with 2.5 mg/L nisin): 2 µg/mL | MIC (Clostridium difficile; Clostridioides difficile, C. difficile clinical isolate 184, read-out: MIC): > 16 µg/mL | MIC (Clostridium difficile; C. difficile clinical isolate 5): >16 µg/mL | MIC (Clostridium difficile; C. difficile clinical isolate 23): >16 µg/mL | MIC (Clostridium difficile; C. difficile clinical isolate 28): >16 µg/mL | MIC (Clostridium difficile; C. difficile clinical isolate 30): >16 µg/mL | MIC (Clostridium difficile; C. difficile clinical isolate 31): >16 µg/mL | MIC (Clostridium difficile; C. difficile clinical isolate 41): >16 µg/mL | MIC (Clostridium difficile; C. difficile clinical isolate 47): >16 µg/mL | MIC (Clostridium difficile; C. difficile clinical isolate 57): >16 µg/mL | MIC (Clostridium difficile; C. difficile clinical isolate 58): >16 µg/mL | MIC (Clostridium difficile; C. difficile clinical isolate 77): >16 µg/mL | MIC (Clostridium difficile; C. difficile clinical isolate 83): >16 µg/mL | MIC (Clostridium difficile; C. difficile clinical isolate 84): >16 µg/mL | MIC (Clostridium difficile; C. difficile clinical isolate 87): >16 µg/mL | MIC (Clostridium difficile; C. difficile clinical isolate 96): >16 µg/mL | MIC (Clostridium difficile; C. difficile clinical isolate 97): >16 µg/mL | MIC (Clostridium difficile; C. difficile clinical isolate 98A): >16 µg/mL | MIC (Clostridium difficile; C. difficile clinical isolate 99A): >16 µg/mL | MIC (Clostridium difficile; C. difficile clinical isolate 102): >16 µg/mL | MIC (Clostridium difficile; C. difficile clinical isolate 120): >16 µg/mL | MIC (Clostridium difficile; C. difficile clinical isolate 126): >16 µg/mL | MIC (Clostridium difficile; C. difficile clinical isolate 130): >16 µg/mL | MIC (Clostridium difficile; C. difficile clinical isolate 169): >16 µg/mL | MIC (Clostridium difficile; C. difficile clinical isolate 185): >16 µg/mL | MIC (Clostridium difficile; C. difficile clinical isolate 186): >16 µg/mL | MIC90 (MRSA AND VRE; 24 h, Table 1d, MRSA n = 21, VRE n = 3, miconazole MIC alone or with polymixin B fixed at 20 mg/L): 4 µg/mL (≈ 9.61 µM) | MIC 50 (MRSA AND VRE; 24 h, Table 1d, MRSA n = 21, VRE n = 3, miconazole MIC alone or with polymixin B fixed at 20 mg/L, read-out: MIC 50): 2 µg/mL (≈ 4.81 µM) | MIC90 (MRSA AND VRE; [1]): 2 µg/mL (≈ 4.81 µM) | MIC Range (MRSA AND VRE; [1]): 0.5 to 8 µg/mL | MIC 50 (MRSA AND VRE; Table 1a, MRSA n = 27, VRE n = 5, miconazole MIC alone or with D-cycloserine fixed at 10 mg/L, read-out: MIC 50): 2 µg/mL (≈ 4.81 µM) | MIC 50 (MRSA AND VRE; [2]): 2 µg/mL (≈ 4.81 µM) | MIC90 (MRSA AND VRE; [2]): 2 µg/mL (≈ 4.81 µM) | MIC Range (MRSA AND VRE; [2]): 0.5 to 8 µg/mL | MIC 50 (MRSA AND VRE; [3]): 2 µg/mL (≈ 4.81 µM) | MIC90 (MRSA AND VRE; [3]): 4 µg/mL (≈ 9.61 µM) | MIC Range (MRSA AND VRE; [3]): 1 to 6 µg/mL | MIC 50 (MRSA AND VRE; [4]): 2 µg/mL (≈ 4.81 µM) | MIC90 (MRSA AND VRE; [4]): 4 µg/mL (≈ 9.61 µM) | MIC Range (MRSA AND VRE; [4]): 0.5 to 8 µg/mL | MIC 50 (MRSA AND VRE; [5]): 2 µg/mL (≈ 4.81 µM) | MIC90 (MRSA AND VRE; [5]): 2 µg/mL (≈ 4.81 µM) | MIC Range (MRSA AND VRE; [5]): 0.5 to 8 µg/mL | MIC Range (MRSA AND VRE; Table 1d, MRSA n = 21, VRE n = 3, miconazole MIC alone or with polymixin B fixed at 20 mg/L): 1 to 6 µg/mL
